These results are taken from ChEMBL document CHEMBL4477209, “Indole-2-carboxamide-based MmpL3 Inhibitors Show Exceptional Antitubercular Activity in an Animal Model of Tuberculosis Infection” (J Med Chem, 2016).

Assay [1] relates to Mycobacterium tuberculosis. Description: Inhibition of MmpL3 in clinical isolates of extensively drug resistant Mycobacterium tuberculosis TF274 after 7 to 14 days by alamar blue assay.
The test system of assay [2] is Mycobacterium tuberculosis. Description: Inhibition of MmpL3 in clinical isolates of extensively drug resistant Mycobacterium tuberculosis R506 after 7 to 14 days by alamar blue assay. (The colour change of resazurin is a common sign of viable cells or microbes.)
Assay [3] deals with Mycobacterium tuberculosis. Description: Inhibition of MmpL3 in clinical isolates of isoniazid/rifampin resistant Mycobacterium tuberculosis KZN494 after 7 to 14 days by alamar blue assay.
The test system of assay [4] is Mycobacterium tuberculosis. Description: Inhibition of MmpL3 in clinical isolates of isoniazid/rifampin resistant Mycobacterium tuberculosis V2475 after 7 to 14 days by alamar blue assay.
The subject of assay [5] is Mycobacterium tuberculosis H37Rv. Description: Inhibition of MmpL3 TSK54R mutant in Mycobacterium tuberculosis H37Rv assessed as growth inhibition.

Values after ≈ are worked out from the molar mass of the structure shown.

`C[C@@H]1[C@H]2C[C@@H](C[C@H]1NC(=O)c1cc3c(F)cc(F)cc3[nH]1)C2(C)C`: the MIC in assay [1] was 6 µM (≈ 1.99 µg/mL); in assay [2], 12 µM (≈ 3.99 µg/mL); in assay [3], 12 µM (≈ 3.99 µg/mL); in assay [4] it was 47 µM (≈ 15.6 µg/mL); in assay [5], 0.0625 to 0.125 µg/mL (≈ 0.188 to 0.376 µM).
For `C[C@@H]1[C@H]2C[C@@H](C[C@H]1NC(=O)c1cc3c(Cl)cc(Cl)cc3[nH]1)C2(C)C`, the MIC was found to be 21 µM (≈ 7.67 µg/mL) in assay [1], 21 µM (≈ 7.67 µg/mL) in assay [2], 43 µM (≈ 15.7 µg/mL) in assay [3] and 171 µM (≈ 62.5 µg/mL) in assay [4].
With `O=C(NC1CCCCCCC1)c1cc2c(Cl)cc(Cl)cc2[nH]1`, the MIC came to 11 µM (≈ 3.73 µg/mL) in assay [1], 6 µM (≈ 2.04 µg/mL) in assay [2] and 11 µM (≈ 3.73 µg/mL) in assay [4].
